Literature values, collected in US11224646B2, “Intranasal delivery of a cyclic-di-nucleotide adjuvanted vaccine for tuberculosis” (priority 2018, dated 2022).

Legend:
[1] = tested on: five common human STING alleles
murine STING = target: T1, murine STING (Mus musculus, UniProt Q3TBT3)
T1 sequence (Q3TBT3 1-378): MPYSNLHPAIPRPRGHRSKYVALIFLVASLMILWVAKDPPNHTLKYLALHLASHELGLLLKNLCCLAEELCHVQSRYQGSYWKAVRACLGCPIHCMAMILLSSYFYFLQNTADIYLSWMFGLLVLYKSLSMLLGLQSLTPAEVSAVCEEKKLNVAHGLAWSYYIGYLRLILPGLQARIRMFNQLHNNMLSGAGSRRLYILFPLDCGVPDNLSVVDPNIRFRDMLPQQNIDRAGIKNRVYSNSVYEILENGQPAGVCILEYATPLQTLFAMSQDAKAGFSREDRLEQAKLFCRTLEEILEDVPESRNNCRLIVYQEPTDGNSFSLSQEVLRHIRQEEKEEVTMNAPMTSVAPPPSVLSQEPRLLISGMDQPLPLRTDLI

| Compound | hydrolysis by phosphodiesterases (phosphodiesterases) | engagement / activation of the five common human STING alleles [1] | activation of murine STING (murine STING) |
| --- | --- | --- | --- |
| Nc1nc2c(ncn2[C@@H]2O[C@@H]3COP(=O)(S)O[C@H]4[C@@H](O)[C@H](n5cnc6c(N)ncnc65)O[C@@H]4CO[P@@](=O)(S)O[C@@H]2[C@@H]3O)c(=O)[nH]1 (stereo partly drawn) [ML-RR-cGAMP, dithio-[RP, RP]-cyclic-[G(2′,5′)pA(3′,5′)p]] | resistant to hydrolysis by phosphodiesterases | – | – |
| Nc1nc2c(ncn2[C@@H]2O[C@@H]3CO[P@@](=O)(S)O[C@H]4[C@@H](O)[C@H](n5cnc6c(=O)[nH]c(N)nc65)O[C@@H]4CO[P@@](=O)(S)O[C@H]3[C@H]2O)c(=O)[nH]1 [RR-CDG, dithio-[RP, RP]-cyclic-[G(3′,5′)pG(3′,5′)p]] | – | does not engage all five common STING alleles | efficiently activates murine STING |
